Measurements: publication PMC9649612, “Molecular docking and biochemical validation of (-)-syringaresinol-4-O-β-D-apiofuranosyl-(1→2)-β-D-glucopyranoside binding to an allosteric site in monoamine transporters” (Frontiers in Pharmacology, 2022)

Legend:
WT-hDAT = target: T1, WT-hDAT (Homo sapiens, UniProt Q01959); test: APP+ transport (uptake) in HeLa cells expressing WT-hDAT; format: cell-based; conditions: hDAT; kinetic analysis
T1 construct: expressed in transfected cells; host or cells: HeLa
T1 sequence (Q01959 whole entry): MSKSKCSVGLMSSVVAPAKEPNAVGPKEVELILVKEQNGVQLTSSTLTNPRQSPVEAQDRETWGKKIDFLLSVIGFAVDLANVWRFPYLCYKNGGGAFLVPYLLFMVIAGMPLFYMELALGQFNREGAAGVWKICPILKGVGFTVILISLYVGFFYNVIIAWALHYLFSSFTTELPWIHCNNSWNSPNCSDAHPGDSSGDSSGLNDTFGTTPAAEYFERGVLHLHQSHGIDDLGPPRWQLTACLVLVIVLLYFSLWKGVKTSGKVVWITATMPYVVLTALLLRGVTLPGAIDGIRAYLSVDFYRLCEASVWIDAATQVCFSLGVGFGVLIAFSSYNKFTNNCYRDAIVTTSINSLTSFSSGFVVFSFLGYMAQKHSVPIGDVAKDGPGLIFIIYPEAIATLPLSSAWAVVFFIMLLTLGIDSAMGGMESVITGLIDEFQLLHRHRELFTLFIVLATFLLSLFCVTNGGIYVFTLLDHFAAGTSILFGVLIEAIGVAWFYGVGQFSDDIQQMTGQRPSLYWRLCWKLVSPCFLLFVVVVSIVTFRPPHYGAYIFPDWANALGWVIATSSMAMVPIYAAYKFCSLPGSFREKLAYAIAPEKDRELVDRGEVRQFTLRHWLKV
Protocol: (§1) HeLa cells were cultured in Dulbecco’s Modified Eagle’s Medium supplemented with 10% fetal bovine serum, 100 units/ml penicillin, and 100 μg/ml streptomycin at 37°C in a humidified 5% CO2 incubator. Cells were plated in a 6-well culture plate and grown overnight. Cells at ∼70% confluence were transfected with hSERT, hDAT, or hNET cDNA in pcDNA3.1 by lipofectamine 2000. Transfected cells were incubated for 24 h at 37°C with 5% CO2 and then transferred into a 12-well plate placed with polylysine coated slides. After grown for additional 12–16 h, the cells were assayed for APP^+ or ASP^+ fluorescence image acquisition.
(§2) The cells expressing WT or mutants of hSERT, hDAT, or hNET were wet mounted on polylysine coated glass slides in 12-well plates and applied for the indicated treatments. […] The extent of APP^+ accumulated in the cells was determined by confocal imaging analysis. ASP^+ binding to SERT in the cell membrane was measured with digitonin-permeabilized cells ([Li M. et al., 2022a]). […] After removing excess ASP^+ by rapid washing three times, ASP^+ binding was determined by confocal imaging analysis.
(§3) Images were analyzed using Zen Blue software.
(§4) Nonlinear regression fits of experimental and calculated data were performed with Origin (Origin Lab). […]

WT-hSERT = target: T2, WT-hSERT (Homo sapiens, UniProt P31645); set-up: method as in our previous experiments; conditions: ref our previous experiments, read-out: Km for APP+ transport; cited from earlier work
T2 construct: expressed in transfected cells; host or cells: HeLa (ATCC CCL-2), transient, pcDNA3.1
T2 sequence (P31645 whole entry): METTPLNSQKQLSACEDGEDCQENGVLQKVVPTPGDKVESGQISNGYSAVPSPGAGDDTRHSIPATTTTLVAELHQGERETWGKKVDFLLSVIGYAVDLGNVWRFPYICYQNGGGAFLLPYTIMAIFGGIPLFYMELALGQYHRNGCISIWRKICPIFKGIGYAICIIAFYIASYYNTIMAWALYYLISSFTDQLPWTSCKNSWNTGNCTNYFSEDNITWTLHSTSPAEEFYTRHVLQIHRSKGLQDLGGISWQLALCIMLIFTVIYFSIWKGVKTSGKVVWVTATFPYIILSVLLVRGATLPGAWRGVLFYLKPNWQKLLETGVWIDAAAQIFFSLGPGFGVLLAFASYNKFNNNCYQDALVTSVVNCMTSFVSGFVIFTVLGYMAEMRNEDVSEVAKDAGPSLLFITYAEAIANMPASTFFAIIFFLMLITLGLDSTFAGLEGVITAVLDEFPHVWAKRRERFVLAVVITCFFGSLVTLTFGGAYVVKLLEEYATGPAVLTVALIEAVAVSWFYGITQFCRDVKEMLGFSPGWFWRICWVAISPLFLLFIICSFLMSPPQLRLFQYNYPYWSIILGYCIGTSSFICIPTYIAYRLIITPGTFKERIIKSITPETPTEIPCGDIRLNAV

WT-hNET = target: T3, WT-hNET (Homo sapiens, UniProt P23975); test: APP+ transport (uptake) in HeLa cells expressing WT-hNET; format: cell-based; conditions: hNET; kinetic analysis
T3 construct: expressed in transfected cells; host or cells: HeLa
T3 sequence (P23975 whole entry): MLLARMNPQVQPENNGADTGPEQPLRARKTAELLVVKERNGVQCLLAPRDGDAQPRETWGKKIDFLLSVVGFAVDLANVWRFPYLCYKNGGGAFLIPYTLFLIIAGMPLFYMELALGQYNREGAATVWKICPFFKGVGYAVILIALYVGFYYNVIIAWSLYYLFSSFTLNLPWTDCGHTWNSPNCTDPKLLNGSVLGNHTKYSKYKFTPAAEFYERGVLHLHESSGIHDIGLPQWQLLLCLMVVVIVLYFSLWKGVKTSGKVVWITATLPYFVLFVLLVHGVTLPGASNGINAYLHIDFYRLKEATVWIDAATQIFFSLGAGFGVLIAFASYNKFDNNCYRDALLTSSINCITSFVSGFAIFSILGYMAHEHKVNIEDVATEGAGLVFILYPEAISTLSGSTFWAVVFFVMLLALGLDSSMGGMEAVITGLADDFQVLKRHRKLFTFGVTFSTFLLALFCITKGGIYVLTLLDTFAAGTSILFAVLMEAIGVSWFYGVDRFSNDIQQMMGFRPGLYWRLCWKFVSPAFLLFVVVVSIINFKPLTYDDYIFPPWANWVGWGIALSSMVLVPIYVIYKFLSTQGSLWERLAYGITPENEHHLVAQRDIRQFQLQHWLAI
Protocol: as §1, §2, §3, §4

Question: With “4-[4-(Dimethylamino)phenyl]-1-methylpyridinium [APP^+, reference compound]” as the substance, how does the Km (WT-hDAT) read?
Answer: The Km was 2.89 ± 0.48 µM.

Question: And the Km (WT-hSERT)?
Answer: Its Km is 2.63 ± 0.16 µM.

Question: What about the Km (WT-hNET) of the same substance?
Answer: Its Km is 1.56 ± 0.22 µM.
